Results reported in BindingDB's records for doi:10.7270/Q2V986KM (Burnham Center For Chemical Genomics, 2011).

Target: T1, Carboxy-terminal domain RNA polymerase II polypeptide A small phosphatase 1 (Homo sapiens, UniProt Q9GZU7)
T1 sequence (Q9GZU7 whole entry): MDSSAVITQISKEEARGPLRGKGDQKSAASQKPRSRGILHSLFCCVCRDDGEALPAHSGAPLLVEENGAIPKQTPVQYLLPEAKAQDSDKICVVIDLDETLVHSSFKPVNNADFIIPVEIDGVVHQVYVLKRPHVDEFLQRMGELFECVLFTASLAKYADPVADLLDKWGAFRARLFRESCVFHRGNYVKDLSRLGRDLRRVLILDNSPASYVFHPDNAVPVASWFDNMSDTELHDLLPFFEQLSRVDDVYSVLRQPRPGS
Assay: CTDSP1 inhibitors, concentration-response, biochemical, absorbance-based, ultra-high-throughput screen actives (AID 540297)

| Structure (SMILES) | IC50 |
| --- | --- |
| C/C(Nc1ccc(F)cc1)=[N+](/C)CCNS(=O)(=O)c1ccc(Cl)cc1 | 5.86 µM |
| CCOc1ccc(CN=Nc2ccc(S(=O)(=O)Nc3ccccc3C(=O)O)cc2[N+](=O)[O-])cc1OC [SMR001308940] | 3.51 µM |
| O=c1cc(O)[n+]2nc(-c3ccc([N+](=O)[O-])cc3)sc2[n-]1 [SMR000175134] | 5.67 µM |
| CCCCC1(C)OC(=O)C(=Cc2ccc(-c3ccc(Cl)c(C(=O)O)c3)o2)C(=O)O1 (centres undefined) | 15.1 µM |
| CCOc1ccccc1/N=C1\SCCCN1C | 23 µM |
| CC(=NNC(=O)c1cccc(N=NC(C)c2ccco2)c1)c1ccco1 (centres undefined) [N-[1-(2-furanyl)ethylideneamino]-3-[2-[1-(2-furanyl)ethylidene]hydrazinyl]benzamide] | 3.17 µM |
| O=C(O)c1cccc(-n2c(O)c3c(c2O)CC(Cl)=CC3)c1 [3-[5-chloranyl-1,3-bis(oxidanylidene)-3a,4,7,7a-tetrahydroisoindol-2-yl]benzoic acid] | 10.3 µM |
| O=C1CC(=O)c2cccc(O)c2C1=O [4,8-dihydroxynaphthalene-1,2-dione] | 44.5 µM |
| C/C(C=NNC(=O)c1ccc(Br)cc1)=C\c1ccccc1 [SMR000140417] | 4.83 µM |
| COc1ccc(N/C(C)=[N+](\C)CCNS(=O)(=O)c2ccc(Cl)cc2)cc1 | 3.29 µM |
| COc1ccccc1N/C(C)=[N+](\C)CCNS(=O)(=O)c1ccc(Cl)cc1 [MLS001165874] | 3.73 µM |
| Cc1[nH][nH]c(=O)c1CCC(=O)NN=Cc1ccco1 | > 80 µM |
| CC1=CC(=NNC(=O)c2ccccc2O)c2ccccc2C1=O [MLS000685531] | 5.15 µM |
| C=CCOc1ccc(CN=Nc2ccc(S(=O)(=O)Nc3ccccc3C(=O)O)cc2[N+](=O)[O-])cc1OC [2-[[4-[2-[(3-methoxy-4-prop-2-enoxy-phenyl)methylidene]hydrazinyl]-3-nitro-phenyl]sulfonylamino]benzoic acid] | 2 µM |
| CSc1nnc(C)c(CC=Nc2ccc(F)cc2F)n1 [MLS000707071] | 13.3 µM |
| O=C1Nc2ccc([N+](=O)[O-])cc2/C1=N/NC(=O)c1ccccc1Cl [2-chloro-N'-(5-nitro-2-oxoindol-3-yl)benzohydrazide] | 6.44 µM |
| O=C1C=C(O)/C(=C/NN2C(=O)C3C(C2=O)C2C=CC3C23CC3)C=C1[N+](=O)[O-] (centres undefined) [MLS000705206] | 4.9 µM |
| Cc1ccc(OCC(=O)NN=C/C=C/c2ccco2)cc1 [MLS000563872] | 6 µM |
| CC1(CC(=O)NN=CC2C=C([N+](=O)[O-])C(=O)C=C2O)OCCO1 (centres undefined) [N'-[(E)-(2-hydroxy-5-nitro-4-oxocyclohexa-2,5-dien-1-ylidene)methyl]-2-(2-methyl-1,3-dioxolan-2-yl)acetohydrazide] | 4.41 µM |
